According to article PMC7983974 (Basic & Clinical Pharmacology & Toxicology, 2020):
“And” between values parts separate entries of the source, which are not always exact repeats. Equal entries are not always repeated. Where two headings read alike, the source gives them in different places.

Columns and labels:
[1] = tested on: EPO; assay: Clinical DDI study: pharmacodynamics, serum erythropoietin; type: in vivo, human; conditions: N 13
[2] = Clinical DDI study: safety and tolerability; type: in vivo, human; conditions: n = 14
[3] = type: in vivo, human; conditions: for Point estimate parameter ratio, AUC / Point estimate parameter ratio, AUC(0‐tlast) / Point estimate parameter ratio, C max: (Molidustat + atazanavir)/molidustat, ANOVA
[4] = tested on: pooled human liver microsomes; assay: Enzyme kinetics of molidustat glucuronidation in pooled human liver microsomes; type: in vitro ADME; conditions: human liver microsomes, Hill equation
[5] = tested on: UGT-mediated glucuronidation of molidustat; assay: as above; type: in vitro ADME; conditions: human, pooled human liver microsomes, pH 7.4
[6] = target: T1, UGT2B4 (Homo sapiens, UniProt P06133); assay: M1 formation from molidustat by recombinant UGT2B4; type: in vitro ADME; conditions: 1 and 10 µmol L^−1
T1 sequence (P06133 24-528): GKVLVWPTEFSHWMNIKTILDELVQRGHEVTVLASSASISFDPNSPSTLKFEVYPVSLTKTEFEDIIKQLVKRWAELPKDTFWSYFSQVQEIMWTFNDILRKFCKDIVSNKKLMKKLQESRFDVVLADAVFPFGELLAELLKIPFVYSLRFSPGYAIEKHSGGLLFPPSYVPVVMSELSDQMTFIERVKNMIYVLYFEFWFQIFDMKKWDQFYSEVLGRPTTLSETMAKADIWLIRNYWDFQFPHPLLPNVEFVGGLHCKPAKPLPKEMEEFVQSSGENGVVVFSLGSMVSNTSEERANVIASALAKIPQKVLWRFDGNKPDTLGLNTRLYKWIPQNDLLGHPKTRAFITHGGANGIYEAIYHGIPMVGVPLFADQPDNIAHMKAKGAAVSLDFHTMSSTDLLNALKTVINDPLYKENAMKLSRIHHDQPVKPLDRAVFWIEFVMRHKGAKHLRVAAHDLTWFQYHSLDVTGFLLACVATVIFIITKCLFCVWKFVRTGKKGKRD

[7] = tested on: molidustat glucuronidation (clearance); assay: In vitro-in vivo scaling: predicted increase in molidustat AUC; parameters: species or system human; conditions: based on mass balance study, no differentiation UGT1A1/UGT1A9
[8] = human, cited from earlier work; for absolute oral bioavailability: oral (IR tablet)
[9] = target: T2, UGT1A10 (Homo sapiens, UniProt Q9HAW8); assay: M1 formation from molidustat by recombinant UGT1A10; type: in vitro ADME; conditions: 1 and 10 µmol L^−1
T2 sequence (Q9HAW8 26-530): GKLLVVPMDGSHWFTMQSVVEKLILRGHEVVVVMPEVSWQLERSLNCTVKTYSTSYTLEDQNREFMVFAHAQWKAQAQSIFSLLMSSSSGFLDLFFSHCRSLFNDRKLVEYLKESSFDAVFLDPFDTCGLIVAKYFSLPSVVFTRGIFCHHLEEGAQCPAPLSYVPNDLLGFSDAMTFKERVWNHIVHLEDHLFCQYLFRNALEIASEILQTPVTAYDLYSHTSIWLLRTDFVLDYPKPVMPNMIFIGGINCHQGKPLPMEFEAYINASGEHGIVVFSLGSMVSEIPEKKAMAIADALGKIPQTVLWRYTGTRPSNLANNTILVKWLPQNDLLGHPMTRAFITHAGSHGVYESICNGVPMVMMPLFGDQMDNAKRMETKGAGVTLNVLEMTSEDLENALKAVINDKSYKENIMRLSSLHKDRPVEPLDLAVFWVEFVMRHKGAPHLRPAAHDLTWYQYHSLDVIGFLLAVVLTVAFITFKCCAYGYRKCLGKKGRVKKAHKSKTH

[10] = target: T3, UGT1A4 (Homo sapiens, UniProt P22310); assay: M1 formation from molidustat by recombinant UGT1A4; type: in vitro ADME; conditions: 1 and 10 µmol L^−1
T3 sequence (P22310 29-534): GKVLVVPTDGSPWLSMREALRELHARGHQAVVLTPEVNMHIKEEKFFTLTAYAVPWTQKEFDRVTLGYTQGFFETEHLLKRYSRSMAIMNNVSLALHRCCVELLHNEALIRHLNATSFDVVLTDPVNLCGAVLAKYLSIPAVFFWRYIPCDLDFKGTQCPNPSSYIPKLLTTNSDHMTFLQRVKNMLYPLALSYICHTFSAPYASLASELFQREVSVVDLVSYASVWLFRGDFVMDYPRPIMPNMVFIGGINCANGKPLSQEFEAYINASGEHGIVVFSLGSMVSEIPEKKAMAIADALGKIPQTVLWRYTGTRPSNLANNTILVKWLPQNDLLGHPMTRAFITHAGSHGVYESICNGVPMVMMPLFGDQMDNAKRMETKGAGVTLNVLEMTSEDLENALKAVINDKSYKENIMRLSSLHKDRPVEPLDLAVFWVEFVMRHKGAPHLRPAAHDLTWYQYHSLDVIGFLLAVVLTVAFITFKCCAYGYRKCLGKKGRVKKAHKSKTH

[11] = target: T4, UGT2B15 (Homo sapiens, UniProt P54855); assay: M1 formation from molidustat by recombinant UGT2B15; type: in vitro ADME; conditions: 1 and 10 µmol L^−1
T4 sequence (P54855 24-530): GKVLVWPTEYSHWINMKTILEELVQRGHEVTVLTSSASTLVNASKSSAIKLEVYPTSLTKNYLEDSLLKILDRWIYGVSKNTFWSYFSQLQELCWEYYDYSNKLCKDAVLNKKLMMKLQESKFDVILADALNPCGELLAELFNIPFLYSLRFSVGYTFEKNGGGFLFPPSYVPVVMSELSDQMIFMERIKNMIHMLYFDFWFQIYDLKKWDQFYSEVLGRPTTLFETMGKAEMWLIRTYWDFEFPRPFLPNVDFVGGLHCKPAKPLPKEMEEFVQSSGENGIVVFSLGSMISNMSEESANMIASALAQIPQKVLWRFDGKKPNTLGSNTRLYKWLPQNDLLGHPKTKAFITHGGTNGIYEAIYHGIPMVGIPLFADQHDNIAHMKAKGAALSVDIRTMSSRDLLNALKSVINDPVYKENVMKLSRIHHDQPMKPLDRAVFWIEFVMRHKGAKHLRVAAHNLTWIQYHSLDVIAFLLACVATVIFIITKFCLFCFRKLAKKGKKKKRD

[12] = male, human, plasma, oral, 25 mg

For `O=c1c(-n2ccnn2)c[nH]n1-c1cc(N2CCOCC2)ncn1` [Molidustat], the “EPO AUC(0‐24), absolute EPO concentration, arithmetic mean ± SD” value [1] was 385 ± 121 IU L^−1*h, the “EPO AUC(0‐24), absolute EPO concentration, geometric mean/CV%” value [1] was 365 IU L^−1*h and the “EPO C max, difference to baseline, arithmetic mean ± SD” value [1] was 12.8 ± 4.02 IU L^−1. For the same compound, the “EPO C max, ratio to baseline, arithmetic mean ± SD” value [1] was 2.62 ± 0.578, the “EPO C max, ratio to baseline, geometric mean/CV%” value [1] was 2.56 and the “Abdominal pain (participants with TEAE)” value [2] was 0 n (%). The “Headache (participants with TEAE)” value [2] was 0 n (%), the “Participants with ≥ 1 TEAE” value [2] was 0 n (%) and the “Jaundice (participants with TEAE)” value ([2]; considered related to atazanavir) was 0 n (%). The “Point estimate parameter ratio, AUC” value [3] was 2.0665, the “Point estimate parameter ratio, AUC(0‐tlast)” value [3] was 2.0766 and the “Point estimate parameter ratio, C max” value [3] was 2.0689. The “Point estimate parameter ratio, AUC” value ([3]; listed as molidustat) was 2.07 and 2, the “Point estimate parameter ratio, AUC(0‐tlast)” value ([3]; listed as molidustat) was 2.08 and the “Point estimate parameter ratio, C max” value ([3]; listed as molidustat) was 2.07. The “increase in exposure for molidustat with concomitant atazanavir” value ([3]; AUC, AUC(0‐t last), C max) was “approximately 100%”, the half-life [3, 12] was 6.3 h and the t max [3, 12] was 0.75 h. For the same compound, the “estimated S50” value [4] was 90 µmol/L, the Km [5] was 90 µM and the “activity for glucuronidation of molidustat” value (from here on “activity for glucuronidation”) [6] was “lacked measurable activity”. The “Fraction metabolized via total glucuronidation (fm)” value [7] was ~ 0.9 and 0.9, the absolute oral bioavailability [8] was “about 60%” and the absolute oral bioavailability ([8]; listed as molidustat) was 59%. The “fraction of the dose excreted as molidustat via faeces” value [8] was ~ 6%, the “fraction of the dose excreted as molidustat via urine” value [8] was ~ 4% and the “activity for glucuronidation” value [9] was “lacked measurable activity”. The “activity for glucuronidation” value [10] was “lacked measurable activity” and the “activity for glucuronidation” value [11] was “lacked measurable activity”.
